Numbered stars: 1 amine (or outer) side, 2 acyl side, 3 side chain; on linkers, the order of the positions; unused ones are H or OH. Bridge positions count the residues as written; N and C are the ends. Square brackets hold non-standard residues; d marks the D form. Peptide text beside a SMILES is read from it. * marks the point of attachment. Adda = CO[C@@H](Cc1ccccc1)[C@@H](C)/C=C(C)/C=C/[C@H](N[*:1])[C@H](C)C(=O)[*:2]; dAsp(3S-Me) = C[C@H](C(=O)[*:3])[C@@H](N[*:1])C(=O)[*:2]; d(γGlu) = O=C(O)[C@@H](CCC(=O)[*:2])N[*:1]; NMeDha = C=C(NC)C(=O)O; Propargyl = C#CC* Some results are limits rather than exact numbers.

Results on four molecules are retold here after patent EP4494656A1 (priority 2023, dated 2025).

Data set [1] has as its system OATP1B3. The experiment in a line: in vitro. The following applies: human.
The subject of data set [2] is HEK293 OATP1B3+.
Data set [3] relates to HEK293 OATP1B1+.
Data set [4] concerns the target protein phosphatase-1 catalytic subunit (a-Isoform from rabbit, Sigma-Aldrich) (Oryctolagus cuniculus, UniProt P62139).
Data set [5] has as its system OATP1B1. The experiment in a line: in vitro. The following applies: human.
Data set [6] addresses type 2A protein phosphatase. The following applies: cited from earlier work.
For data set [7], the target named is type 1 protein phosphatase. The following applies: cited from earlier work.

Sequence of protein phosphatase-1 catalytic subunit (a-Isoform from rabbit, Sigma-Aldrich) (P62139 whole entry, looked up, canonical isoform): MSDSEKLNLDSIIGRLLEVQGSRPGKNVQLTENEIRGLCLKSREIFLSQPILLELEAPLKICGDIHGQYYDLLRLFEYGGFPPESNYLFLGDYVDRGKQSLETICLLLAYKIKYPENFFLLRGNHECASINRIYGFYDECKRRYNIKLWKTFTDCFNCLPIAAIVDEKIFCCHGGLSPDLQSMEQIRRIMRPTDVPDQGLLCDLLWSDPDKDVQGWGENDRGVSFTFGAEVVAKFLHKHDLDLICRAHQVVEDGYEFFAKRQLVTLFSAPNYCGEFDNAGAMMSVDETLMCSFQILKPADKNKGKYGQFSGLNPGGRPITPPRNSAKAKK

`C=C1C(=O)N[C@H](C)C(=O)N[C@@H](Cc2ccc(OCc3cn(CC(=O)N4CCN(C(=O)[C@H](CCCCN)n5cc(COc6ccc(C[C@@H]7NC(=O)[C@@H](C)NC(=O)C(=C)N(C)C(=O)CC[C@H](C(=O)O)NC(=O)[C@@H](C)[C@H](/C=C/C(C)=C/[C@H](C)[C@H](Cc8ccccc8)OC)NC(=O)[C@H](CCCNC(=N)N)NC(=O)[C@@H](C)[C@H](C(=O)O)NC7=O)cc6)nn5)CC4)nn3)cc2)C(=O)N[C@@H](C(=O)O)[C@H](C)C(=O)N[C@@H](CCCNC(=N)N)C(=O)N[C@@H](/C=C/C(C)=C/[C@H](C)[C@H](Cc2ccccc2)OC)[C@H](C)C(=O)N[C@@H](C(=O)O)CCC(=O)N1C` [MC-PrgTyr-Arg-Dimer-2] showed an IC50 in data set [1] of 1850 ± 309 nM. Besides, in data set [2], the “increase of IC50_OATP1B3 compared to the MC-PrgTyr-Arg monomer” value is reported as 45 fold and the “increase of IC50_OATP1B3 in comparison to MC-LR” value amounted to 234 fold. For the same molecule, in data set [3], the “increase of IC50_OATP1B1 compared to the corresponding MC-PrgTyr-Arg monomer” value was “more than 36 fold” and the “increase of IC50_OATP1B1 in comparison to MC-LR” value is listed as “more than 175 fold”. Besides, in data set [4], the “lower IC50_PPI compared to the IC50_PPI of the MC-LR reference cytotoxin” value was “about 16 fold” and the “lower IC50_PPI compared to the IC50_PPI of the corresponding MC-PrgTyr-Arg monomer” value is recorded as “more than 50 fold”. The same molecule came in with an IC50 in data set [5] of over 3000 nM.

For `C=C1C(=O)N[C@H](C)C(=O)N[C@@H](CC(C)C)C(=O)N[C@@H](C(=O)O)[C@H](C)C(=O)N[C@@H](CCCNC(=N)N)C(=O)N[C@@H](/C=C/C(C)=C/[C@H](C)[C@H](Cc2ccccc2)OC)[C@H](C)C(=O)N[C@@H](C(=O)O)CCC(=O)N1C` [MC-LR, microcystin-LR, reference compound] (R[Adda][d(γGlu)][NMeDha][dA]L[dAsp(3S-Me)]-OH; lactam N-7), the “Ratio of IC50_OATP1B3/ IC50_PPI” value in data set [2] is 2.9. Moreover, the IC50 in data set [2] (read-out: IC50_OATP1B3 ± SE) was 7.9 ± 1.7 nM; in data set [3] (read-out: IC50_OATP1B1 ± SE), 17.1 ± 2.1 nM; in data set [6] it was 0.04 nM; in data set [7], 0.03 nM. In addition, the “Ratio of IC50_OATP1B1/ IC50_PPI” value in data set [3] came to 6.3.

Turning to `C=C1C(=O)N[C@H](C)C(=O)N[C@@H](Cc2ccc(OCc3cn(CC(=O)N4CCN(C(=O)Cn5cc(COc6ccc(C[C@@H]7NC(=O)[C@@H](C)NC(=O)C(=C)N(C)C(=O)CC[C@H](C(=O)O)NC(=O)[C@@H](C)[C@H](/C=C/C(C)=C/[C@H](C)[C@H](Cc8ccccc8)OC)NC(=O)[C@H](CCCNC(=N)N)NC(=O)[C@@H](C)[C@H](C(=O)O)NC7=O)cc6)nn5)CC4)nn3)cc2)C(=O)N[C@@H](C(=O)O)[C@H](C)C(=O)N[C@@H](CCCNC(=N)N)C(=O)N[C@@H](/C=C/C(C)=C/[C@H](C)[C@H](Cc2ccccc2)OC)[C@H](C)C(=O)N[C@@H](C(=O)O)CCC(=O)N1C` [MC-PrgTyr-Arg-Dimer-1], the IC50 in data set [1] stood at 1060 ± 302 nM. In addition, in data set [2], the “increase of IC50_OATP1B3 compared to the MC-PrgTyr-Arg monomer” value is on record as 26 fold and the “increase of IC50_OATP1B3 in comparison to MC-LR” value came to 134 fold. Besides, in data set [3], the “increase of IC50_OATP1B1 compared to the corresponding MC-PrgTyr-Arg monomer” value is 24 fold and the “increase of IC50_OATP1B1 in comparison to MC-LR” value is given as “more than 116 fold”. Moreover, in data set [4], the “lower IC50_PPI compared to the IC50_PPI of the MC-LR reference cytotoxin” value was “about 10 fold” and the “lower IC50_PPI compared to the IC50_PPI of the corresponding MC-PrgTyr-Arg monomer” value is listed as “more than 20 fold”. In data set [5], this molecule showed an IC50 of 2000 ± 711 nM.

As to `C#CCOc1ccc(C[C@@H]2NC(=O)[C@@H](C)NC(=O)C(=C)N(C)C(=O)CC[C@H](C(=O)O)NC(=O)[C@@H](C)[C@H](/C=C/C(C)=C/[C@H](C)[C@H](Cc3ccccc3)OC)NC(=O)[C@H](CCCNC(=N)N)NC(=O)[C@@H](C)[C@H](C(=O)O)NC2=O)cc1` [MC-PrgTyr-Arg, cyclo(D-Ala-PrgTyr-D-MeAsp-Arg-Adda-D-Glu-Mdha), reference compound] (R[Adda][d(γGlu)][NMeDha][dA]Y(Propargyl)[dAsp(3S-Me)]-OH; lactam N-7), the IC50 in data set [1] amounted to 40.4 ± 36.6 nM; in data set [5] it was 82.2 ± 4.5 nM.
